Tests used:
Format in all cases: in vivo
Avena fatua = assay: Post-emergence field trial on weeds (Example 5); settings: 3-5 leaf growth stage, 21 days after treatment
Method: (§1) The numbers in the columns refer to the percentage damage to the crop or weed. Winter wheat was grown outdoors on plots under natural outdoor conditions, and seeds of typical harmful plants were laid out. Treatment with the herbicide (A), the safener (B) and the herbicide-safener combination (A)+(B) was carried out after the harmful plants had emerged and the wheat was in the growth stage between 3 and 5 leaves. The effect of the composition was assessed 28 days after treatment by scoring visually in comparison with untreated controls. Field trials were carried out according to the above Example 1 and applying a mixture of cycloxydim and fenoxaprop-P-ethyl+mefenpyr-diethyl to winter wheat and the weed Avena fatua at the 3–5 leaf growth stage. Assessment was 21 days after treatment.

[1] = system: Triticum aestivum (winter wheat); assay: Post-emergence field trial on winter wheat (Example 5); settings: 3-5 leaf growth stage, 21 days after treatment
Method: as §1

[2] = system: Hordeum vulgare (summer barley); assay: Post-emergence field trials, selectivity in barley (Examples 2-4)
Method: (§2) The numbers in the columns refer to the percentage damage to the crop or weed.
(§3) Winter wheat was grown outdoors on plots under natural outdoor conditions, and seeds of typical harmful plants were laid out. Treatment with the herbicide (A), the safener (B) and the herbicide-safener combination (A)+(B) was carried out after the harmful plants had emerged and the wheat was in the growth stage between 3 and 5 leaves. The effect of the composition was assessed 28 days after treatment by scoring visually in comparison with untreated controls.
(§4) Field trials were carried out according to the above Example 1 but using the crops barley and durum wheat and applying a mixture of clethodim and mefenpyr-diethyl.
(§5) Field trials were carried out according to the above Example 2 and applying a mixture of clethodim and fenoxaprop-P-ethyl plus mefenpyr-diethyl.
(§6) Field trials were carried out according to the above Example 2 and applying a mixture of tepraloxydim and mefenpyr-diethyl, or tepraloxydim and fenoxaprop-P-ethyl plus mefenpyr-diethyl.

[3] = system: Triticum durum desf. (durum wheat); assay: Post-emergence field trials, selectivity in durum wheat (Examples 2-4)
Method: as §2, §3, §4, §5, §6

[4] = system: Triticum aestivum (winter wheat); assay: Post-emergence field trial, selectivity in winter wheat (Example 1); settings: 28 days after treatment
Method: as §2
(§7) Post-Emergence Effect on Weeds and Selectivity in Winter Wheat (Field Trials)
as §3

Alopecurus myosuroides = assay: Post-emergence field trial, effect on weeds (Example 1); settings: 28 days after treatment
Method: as §2, §7, §3
(§8) The percentage control of the weed species are shown in comparison with the expected values given in parentheses.

Phalaris minor = assay: as above; settings: 28 days after treatment
Method: as §2, §7, §3, §8

CCCC(=NOCC)C1=C(O)CC(C2CCCSC2)CC1=O (racemic) [Compound A5, (±)-2-[1-(ethoxyimino)butyl]-3-hydroxy-5-thian-3-ylcyclohex-2-enone]
Phytotox (%) on AVEFA (Avena fatua; 40 g a.i./ha): 65% | Phytotox (%) on TRZAW ([1]; 40 g a.i./ha): 16%

CCSC(C)CC1CC(=O)C(/C(CC)=N/OC/C=C/Cl)=C(O)C1 (racemic) [(A4), (±)-2-[(E)-1-[(E)-3-chloroallyloxyimino]propyl]-5-[2-(ethylthio)propyl]-3-hydroxycyclohex-2-enone]
Phytotox (%) on HORVS ([2]; 7.5 g ai/ha): 51% | Phytotox (%) on HORVS ([2]; 15 g ai/ha): 67% | Phytotox (%) on TRZDU ([3]; 7.5 g ai/ha): 32% | Phytotox (%) on TRZDU ([3]; 15 g ai/ha): 56%

CCCC(=NOCC)C1=C(O)CC(CC(C)SCC)CC1=O (racemic) [Compound A6, (±)-(EZ)-2-(1-ethoxyiminobutyl)-5-[2-(ethylthio)propyl]-3-hydroxycyclohex-2-enone]
Phytotox (%) on TRZAW ([4]; 72 g a.i./ha): 28% | Phytotox (%) on ALOMY (Alopecurus myosuroides; 72 g a.i./ha): 70% | Phytotox (%) on PHAMI (Phalaris minor; 72 g a.i./ha): 55%

CCC(=NOC/C=C/Cl)C1=C(O)CC(C2CCOCC2)CC1=O (racemic) [(A7), (EZ)-(RS)-2-{1-[(2E)-3-chloroallyloxyimino]propyl}-3-hydroxy-5-perhydropyran-4-ylcyclohex-2-en-1-one]
Phytotox (%) on HORVS ([2]; 8.25 g ai/ha): 78% | Phytotox (%) on TRZDU ([3]; 8.25 g ai/ha): 70%

CCOC(=O)C1=NN(c2ccc(Cl)cc2Cl)C(C)(C(=O)OCC)C1 (stereo not drawn) [(B1), ethyl 1-(2,4-dichlorophenyl)-5-(ethoxycarbonyl)-5-methyl-2-pyrazoline-3-carboxylate]
Phytotox (%) on AVEFA (Avena fatua; 71 g a.i./ha): 0% | Phytotox (%) on HORVS ([2]; 100 g ai/ha): 0% | Phytotox (%) on TRZAW ([4]; 11 g a.i./ha): 0% | Phytotox (%) on TRZAW ([4]; 45 g a.i./ha): 0% | Phytotox (%) on TRZAW ([1]; 71 g a.i./ha): 0% | Phytotox (%) on TRZDU ([3]; 100 g ai/ha): 0% | Phytotox (%) on ALOMY (Alopecurus myosuroides; 11 g a.i./ha): 0% | Phytotox (%) on ALOMY (Alopecurus myosuroides; 45 g a.i./ha): 0% | Phytotox (%) on PHAMI (Phalaris minor; 11 g a.i./ha): 0% | Phytotox (%) on PHAMI (Phalaris minor; 45 g a.i./ha): 0%
